{
  "source": "patent US20070049564A1",
  "about": "(Wyeth, priority 2005, published 2007)",
  "assay_in_all_cases": "MIC, broth microdilution",
  "key": {"E. coli GC 2203": {"tested_on": "E. coli GC 2203", "details": "Escherichia coli"}, "S. pneumoniae* GC 4465": {"tested_on": "S. pneumoniae* GC 4465", "details": "Streptococcus pneumoniae"}, "E. coli GC 2270": {"tested_on": "E. coli GC 2270", "details": "Escherichia coli"}, "E. coli GC 2271": {"tested_on": "E. coli GC 2271", "details": "Escherichia coli"}, "E. coli GC 4560": {"tested_on": "E. coli GC 4560", "details": "Escherichia coli"}, "S. aureus GC 6467": {"tested_on": "S. aureus GC 6467", "details": "Staphylococcus aureus"}, "E. faecalis GC 2242": {"tested_on": "E. faecalis GC 2242", "details": "Enterococcus faecalis"}, "E. coli GC 2235": {"tested_on": "E. coli GC 2235", "details": "Escherichia coli"}, "E. faecium GC 4556": {"tested_on": "E. faecium GC 4556", "details": "Enterococcus faecium"}, "S. aureus GC 6335": {"tested_on": "S. aureus GC 6335", "details": "Staphylococcus aureus"}, "S. agalactiae GC 4564": {"tested_on": "S. agalactiae GC 4564", "details": "Streptococcus agalactiae"}, "S. aureus GC 2216": {"tested_on": "S. aureus GC 2216", "details": "Staphylococcus aureus"}, "P. aeruginosa GC 2214": {"tested_on": "P. aeruginosa GC 2214", "details": "Pseudomonas aeruginosa"}, "E. coli GC 2232": {"tested_on": "E. coli GC 2232", "details": "Escherichia coli"}, "E. faecalis GC 2267": {"tested_on": "E. faecalis GC 2267", "details": "Enterococcus faecalis"}, "S. typhimurium GC 2172": {"tested_on": "S. typhimurium GC 2172", "details": "Salmonella enterica, TYPHIMURIUM", "description": "Antimicrobial susceptibility testing. The in vitro activities of the antibiotics are determined by the broth microdilution method as recommended by the National Committee for Clinical Laboratory Standards (NCCLS) (1). Mueller-Hinton II broth (MHBII)(BBL Cockeysville, Md.) is the medium employed in the testing procedures. Microtiter plates containing serial dilutions of each antimicrobial agent are inoculated with each organism to yield the appropriate density (10^5 CFU/ml) in a 100 μl final volume. The plates are incubated for 18-22 hours at 35° C. in ambient air.\nRepresentative compounds were first incubated in mouse serum for an hour prior to the in vitro testing against a panel of selected gram-positive and gram-negative bacteria strains. All compounds were also pre-incubated in water for an hour prior to testing as control."}, "E. coli GC 2231": {"tested_on": "E. coli GC 2231", "details": "Escherichia coli"}, "E. coli GC 4559": {"tested_on": "E. coli GC 4559", "details": "Escherichia coli"}, "E. coli GC 3226": {"tested_on": "E. coli GC 3226", "details": "Escherichia coli"}},
  "data": [
    {"compound": "CCCCC(=O)OCOC(=O)N(CC(=O)Nc1cc(N(C)C)c2c(c1O)C(=O)C1=C(O)[C@]3(O)C(=O)C(C(N)=O)=C(O)[C@@H](N(C)C)[C@@H]3C[C@@H]1C2)C(C)(C)C", "note": "[Example 61, ({[(2-{[(5aR,6aS,7S,10aS)-9-(aminocarbonyl)-4,7-bis(dimethylamino)-1,8,10a,11-tetrahydroxy-10,12-dioxo-5,5a,6,6a,7,10,10a,12-octahydrotetracen-2-yl]amino}-2-oxoethyl)(tert-butyl)amino]carbonyl}oxy)methyl pentanoate]", "values": [
      {"measurement": "MIC", "setting": "E. coli GC 2203; GC2203, pre-incubation in human serum", "value": 8, "unit": "µg/mL"},
      {"measurement": "MIC", "setting": "E. coli GC 2203; GC2203, pre-incubation in mouse serum", "value": 0.5, "unit": "µg/mL"},
      {"measurement": "MIC", "setting": "E. coli GC 2203; GC2203, pre-incubation in water", "value": 32, "unit": "µg/mL"},
      {"measurement": "MIC", "setting": "S. pneumoniae* GC 4465; pre-incubation in human serum", "value": 0.25, "unit": "µg/mL"},
      {"measurement": "MIC", "setting": "S. pneumoniae* GC 4465; pre-incubation in mouse serum", "value": 0.12, "unit": "µg/mL"},
      {"measurement": "MIC", "setting": "S. pneumoniae* GC 4465; pre-incubation in water", "value": 0.12, "unit": "µg/mL"},
      {"measurement": "MIC", "setting": "E. coli GC 2270; GC2270, pre-incubation in human serum", "value": 4, "unit": "µg/mL"},
      {"measurement": "MIC", "setting": "E. coli GC 2270; GC2270, pre-incubation in mouse serum", "value": 0.5, "unit": "µg/mL"},
      {"measurement": "MIC", "setting": "E. coli GC 2270; GC2270, pre-incubation in water", "value": 16, "unit": "µg/mL"},
      {"measurement": "MIC", "setting": "E. coli GC 2271; GC2271, pre-incubation in human serum", "value": 4, "unit": "µg/mL"},
      {"measurement": "MIC", "setting": "E. coli GC 2271; GC2271, pre-incubation in mouse serum", "value": 0.5, "unit": "µg/mL"},
      {"measurement": "MIC", "setting": "E. coli GC 2271; GC2271, pre-incubation in water", "value": 16, "unit": "µg/mL"},
      {"measurement": "MIC", "setting": "E. coli GC 4560; GC4560, pre-incubation in human serum", "value": 1, "unit": "µg/mL"},
      {"measurement": "MIC", "setting": "E. coli GC 4560; GC4560, pre-incubation in mouse serum", "value": 0.25, "unit": "µg/mL"},
      {"measurement": "MIC", "setting": "E. coli GC 4560; GC4560, pre-incubation in water", "value": 1, "unit": "µg/mL"},
      {"measurement": "MIC", "setting": "S. aureus GC 6467; GC6467, pre-incubation in human serum", "value": 0.5, "unit": "µg/mL"},
      {"measurement": "MIC", "setting": "S. aureus GC 6467; GC6467, pre-incubation in mouse serum", "value": 0.5, "unit": "µg/mL"},
      {"measurement": "MIC", "setting": "S. aureus GC 6467; GC6467, pre-incubation in water", "value": 1, "unit": "µg/mL"},
      {"measurement": "MIC", "setting": "E. faecalis GC 2242; GC2242, pre-incubation in human serum", "value": 2, "unit": "µg/mL"},
      {"measurement": "MIC", "setting": "E. faecalis GC 2242; GC2242, pre-incubation in mouse serum", "value": 0.5, "unit": "µg/mL"},
      {"measurement": "MIC", "setting": "E. faecalis GC 2242; GC2242, pre-incubation in water", "value": 2, "unit": "µg/mL"},
      {"measurement": "MIC", "setting": "E. coli GC 2235; GC2235, pre-incubation in human serum", "value": 4, "unit": "µg/mL"},
      {"measurement": "MIC", "setting": "E. coli GC 2235; GC2235, pre-incubation in mouse serum", "value": 0.5, "unit": "µg/mL"},
      {"measurement": "MIC", "setting": "E. coli GC 2235; GC2235, pre-incubation in water", "value": 16, "unit": "µg/mL"},
      {"measurement": "MIC", "setting": "E. faecium GC 4556; GC4556, pre-incubation in human serum", "value": 2, "unit": "µg/mL"},
      {"measurement": "MIC", "setting": "E. faecium GC 4556; GC4556, pre-incubation in mouse serum", "value": 0.5, "unit": "µg/mL"},
      {"measurement": "MIC", "setting": "E. faecium GC 4556; GC4556, pre-incubation in water", "value": 2, "unit": "µg/mL"},
      {"measurement": "MIC", "setting": "S. aureus GC 6335; GC6335, pre-incubation in human serum", "value": 1, "unit": "µg/mL"},
      {"measurement": "MIC", "setting": "S. aureus GC 6335; GC6335, pre-incubation in mouse serum", "value": 0.5, "unit": "µg/mL"},
      {"measurement": "MIC", "setting": "S. aureus GC 6335; GC6335, pre-incubation in water", "value": 1, "unit": "µg/mL"},
      {"measurement": "MIC", "setting": "S. agalactiae GC 4564; GC4564, pre-incubation in human serum", "value": 0.5, "unit": "µg/mL"},
      {"measurement": "MIC", "setting": "S. agalactiae GC 4564; GC4564, pre-incubation in mouse serum", "value": 0.25, "unit": "µg/mL"},
      {"measurement": "MIC", "setting": "S. agalactiae GC 4564; GC4564, pre-incubation in water", "value": 0.25, "unit": "µg/mL"},
      {"measurement": "MIC", "setting": "S. aureus GC 2216; GC2216, pre-incubation in human serum", "value": 0.5, "unit": "µg/mL"},
      {"measurement": "MIC", "setting": "S. aureus GC 2216; GC2216, pre-incubation in mouse serum", "value": 0.5, "unit": "µg/mL"},
      {"measurement": "MIC", "setting": "S. aureus GC 2216; GC2216, pre-incubation in water", "value": 1, "unit": "µg/mL"},
      {"measurement": "MIC", "setting": "P. aeruginosa GC 2214; GC2214, pre-incubation in human serum", "value": "> 64", "unit": "µg/mL"},
      {"measurement": "MIC", "setting": "P. aeruginosa GC 2214; GC2214, pre-incubation in mouse serum", "value": 8, "unit": "µg/mL"},
      {"measurement": "MIC", "setting": "P. aeruginosa GC 2214; GC2214, pre-incubation in water", "value": "> 64", "unit": "µg/mL"},
      {"measurement": "MIC", "setting": "E. coli GC 2232; GC2232, pre-incubation in human serum", "value": 4, "unit": "µg/mL"},
      {"measurement": "MIC", "setting": "E. coli GC 2232; GC2232, pre-incubation in mouse serum", "value": 0.5, "unit": "µg/mL"},
      {"measurement": "MIC", "setting": "E. coli GC 2232; GC2232, pre-incubation in water", "value": 16, "unit": "µg/mL"},
      {"measurement": "MIC", "setting": "E. faecalis GC 2267; GC2267, pre-incubation in human serum", "value": 2, "unit": "µg/mL"},
      {"measurement": "MIC", "setting": "E. faecalis GC 2267; GC2267, pre-incubation in mouse serum", "value": 0.5, "unit": "µg/mL"},
      {"measurement": "MIC", "setting": "E. faecalis GC 2267; GC2267, pre-incubation in water", "value": 2, "unit": "µg/mL"},
      {"measurement": "MIC", "setting": "S. typhimurium GC 2172; pre-incubation in human serum", "value": 64, "unit": "µg/mL"},
      {"measurement": "MIC", "setting": "S. typhimurium GC 2172; pre-incubation in mouse serum", "value": 1, "unit": "µg/mL"},
      {"measurement": "MIC", "setting": "S. typhimurium GC 2172; pre-incubation in water", "value": "> 64", "unit": "µg/mL"},
      {"measurement": "MIC", "setting": "E. coli GC 2231; GC2231, pre-incubation in human serum", "value": 8, "unit": "µg/mL"},
      {"measurement": "MIC", "setting": "E. coli GC 2231; GC2231, pre-incubation in mouse serum", "value": 1, "unit": "µg/mL"},
      {"measurement": "MIC", "setting": "E. coli GC 2231; GC2231, pre-incubation in water", "value": 32, "unit": "µg/mL"},
      {"measurement": "MIC", "setting": "E. coli GC 4559; GC4559, pre-incubation in human serum", "value": 8, "unit": "µg/mL"},
      {"measurement": "MIC", "setting": "E. coli GC 4559; GC4559, pre-incubation in mouse serum", "value": 1, "unit": "µg/mL"},
      {"measurement": "MIC", "setting": "E. coli GC 4559; GC4559, pre-incubation in water", "value": 64, "unit": "µg/mL"},
      {"measurement": "MIC", "setting": "E. coli GC 3226; GC3226, pre-incubation in human serum", "value": 8, "unit": "µg/mL"},
      {"measurement": "MIC", "setting": "E. coli GC 3226; GC3226, pre-incubation in mouse serum", "value": 0.5, "unit": "µg/mL"},
      {"measurement": "MIC", "setting": "E. coli GC 3226; GC3226, pre-incubation in water", "value": 32, "unit": "µg/mL"}
    ]}
  ]
}
